The target in this assay is Recombinant Btk (Homo sapiens (Human), UniProt Q06187). Kind of assay: BTK kinase assay (TR-FRET). Conditions: read-out: IC50 (nM) Btk; 1 hour pre-incubation, ATP at Km. (In TR-FRET formats the signal depends on donor and acceptor labels being close together.)

IC50 data for 22 compounds are collected here from patent US20250340560A1, “SUBSTITUTED PYRAZOLO[1,5-a]PYRIMIDINES AS BRUTON'S TYROSINE KINASE MODULATORS” (BEIGENE SWITZERLAND GMBH, priority 2013, published 2025).

Structures are written as SMILES.

Chain of Recombinant Btk (Q06187 whole entry): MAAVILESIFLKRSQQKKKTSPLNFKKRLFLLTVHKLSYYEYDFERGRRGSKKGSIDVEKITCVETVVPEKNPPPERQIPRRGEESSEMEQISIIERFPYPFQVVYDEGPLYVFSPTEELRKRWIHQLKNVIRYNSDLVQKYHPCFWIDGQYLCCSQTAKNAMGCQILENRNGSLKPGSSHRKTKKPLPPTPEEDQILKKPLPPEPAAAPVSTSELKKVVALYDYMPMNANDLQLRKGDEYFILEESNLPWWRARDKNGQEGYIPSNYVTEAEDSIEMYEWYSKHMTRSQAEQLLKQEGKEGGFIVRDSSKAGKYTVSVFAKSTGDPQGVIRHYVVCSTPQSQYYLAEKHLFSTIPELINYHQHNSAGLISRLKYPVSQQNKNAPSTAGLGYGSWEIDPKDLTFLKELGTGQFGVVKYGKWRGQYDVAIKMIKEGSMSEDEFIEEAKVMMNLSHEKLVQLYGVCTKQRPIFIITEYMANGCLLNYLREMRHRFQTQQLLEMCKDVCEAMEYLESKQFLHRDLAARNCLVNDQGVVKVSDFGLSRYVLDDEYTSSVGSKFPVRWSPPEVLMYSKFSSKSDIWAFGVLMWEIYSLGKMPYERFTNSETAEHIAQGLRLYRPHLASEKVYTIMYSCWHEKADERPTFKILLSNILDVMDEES

For orientation: IC50 means the concentration needed to halve the response being measured. As to `C=CC(=O)Nc1ccccc1C1CCNc2c(C(N)=O)c(-c3ccc(C(F)(F)F)c(Cl)c3)nn21` (stereo not shown) [Compound 162, 7-(2-Acrylamidophenyl)-2-(3-chloro-4-(trifluoromethyl)phenyl)-4,5,6,7-tetrahydropyrazolo[1,5-a]pyrimidine-3-carboxamide], the IC50 is 2.1 nM.
In the case of `C=CC(=O)Nc1ccccc1C1CCNc2c(C(N)=O)c(-c3ccc(Cl)c(C(F)(F)F)c3)nn21` (stereo not shown) [Compound 163, 7-(2-Acrylamidophenyl)-2-(4-chloro-3-(trifluoromethyl)phenyl)-4,5,6,7-tetrahydropyrazolo[1,5-a]pyrimidine-3-carboxamide] it was 7.3 nM.
Consider `COc1cc(-c2nn3c(c2C(N)=O)NCCC3c2ccccc2NC(=O)/C=C/CN(C)C)ccc1C` (stereo not shown) [Compound 165, (E)-7-(2-(4-(Dimethylamino)but-2-enamido)phenyl)-2-(3-methoxy-4-methylphenyl)-4,5,6,7-tetrahydropyrazolo[1,5-a]pyrimidine-3-carboxamide], for which the IC50 came out at 1.6 nM.
Then `C=CC(=O)Nc1ccccc1C1CCNc2c(C(N)=O)c(-c3cccc(OC)c3)nn21` (stereo not shown) [Compound 166, 7-(2-Acrylamidophenyl)-2-(3-methoxyphenyl)-4,5,6,7-tetrahydropyrazolo[1,5-a]pyrimidine-3-carboxamide], with 2.7 nM; and `C=CC(=O)Nc1ccccc1C1CCNc2c(C(N)=O)c(-c3cc(OC)c(OC)c(OC)c3)nn21` (stereo not shown) [Compound 167, 7-(2-Acrylamidophenyl)-2-(3,4,5-trimethoxyphenyl)-4,5,6,7-tetrahydropyrazolo[1,5-a]pyrimidine-3-carboxamide], with 2.4 nM; and `C=CC(=O)Nc1ccccc1C1CCNc2c(C(N)=O)c(-c3ccc(OC)c(OC)c3)nn21` (stereo not shown) [Compound 168, 7-(2-Acrylamidophenyl)-2-(3,4-dimethoxyphenyl)-4,5,6,7-tetrahydropyrazolo[1,5-a]pyrimidine-3-carboxamide], with 3.2 nM.
In the case of `C=CC(=O)Nc1ccccc1C1CCNc2c(C(N)=O)c(-c3cc(Cl)c(OC)c(Cl)c3)nn21` (stereo not shown) [Compound 169, 7-(2-Acrylamidophenyl)-2-(3,5-dichloro-4-methoxyphenyl)-4,5,6,7-tetrahydropyrazolo[1,5-a]pyrimidine-3-carboxamide] it was 0.15 nM; in that of `NC(=O)c1c(-c2ccc(Oc3ccccc3)cc2)nn2c1NCCC2C1CCN(C(=O)/C=C/CN2CCCCC2)CC1` (stereo not shown) [Compound 170, (E)-2-(4-Phenoxyphenyl)-7-(1-(4-(piperidin-1-yl)but-2-enoyl)piperidin-4-yl)-4,5,6,7-tetrahydropyrazolo[1,5-a]pyrimidine-3-carboxamide], 3.8 nM; in that of `C=CC(=O)N1CCC(C2CCNc3c(C(N)=O)c(-c4ccc(C)c(OC)c4)nn32)CC1` (stereo not shown) [Compound 174, 7-(1-Acryloylpiperidin-4-yl)-2-(3-methoxy-4-methylphenyl)-4,5,6,7-tetrahydropyrazolo[1,5-a]pyrimidine-3-carboxamide], 4.8 nM.
Then `C=CC(=O)N1CC(C2(C)CCNc3c(C(N)=O)c(-c4ccc(Oc5ccccc5)cc4)nn32)C1` (stereo not shown) [Compound 175, 7-(1-Acryloylazetidin-3-yl)-7-methyl-2-(4-phenoxyphenyl)-4,5,6,7-tetrahydropyrazolo[1,5-a]pyrimidine-3-carboxamide], with 1.2 nM.
As to `NC(=O)c1c(-c2ccc(Oc3ccccc3)cc2)nn2c1NCC[C@H]2C1CCN(C(=O)CCCl)CC1` [Compound 177, (S)-7-(1-(3-chloropropanoyl)piperidin-4-yl)-2-(4-phenoxyphenyl)-4,5,6,7-tetrahydropyrazolo[1,5-a]pyrimidine-3-carboxamide], the IC50 came to 5.7 nM.
In the case of `CC#CC(=O)N1CCC(C2CCNc3c(C(N)=O)c(-c4ccc(Oc5ccc(F)cc5F)cc4)nn32)CC1` (stereo not shown) [Compound 179, 7-(1-(But-2-ynoyl)piperidin-4-yl)-2-(4-(2,4-difluorophenoxy)phenyl)-4,5,6,7-tetrahydropyrazolo[1,5-a]pyrimidine-3-carboxamide] it was 48 nM.
In the case of `N#CCC(=O)N1CCC([C@@H]2CCNc3c(C(N)=O)c(-c4ccc(Oc5ccccc5)cc4)nn32)CC1` [Compound 180, (S)-7-(1-(2-Cyanoacetyl)piperidin-4-yl)-2-(4-phenoxyphenyl)-4,5,6,7-tetrahydropyrazolo[1,5-a]pyrimidine-3-carboxamide], the IC50 was 87 nM.
In the case of `N#CC(=CC1CC1)C(=O)N1CCC([C@@H]2CCNc3c(C(N)=O)c(-c4ccc(Oc5ccccc5)cc4)nn32)CC1` [Compound 181, (S)-7-(1-(2-cyano-3-cyclopropylacryloyl)piperidin-4-yl)-2-(4-phenoxyphenyl)-4,5,6,7-tetrahydropyrazolo[1,5-a]pyrimidine-3-carboxamide] it was 25 nM; in that of `N#CN1CCC([C@@H]2CCNc3c(C(N)=O)c(-c4ccc(Oc5ccccc5)cc4)nn32)CC1` [Compound 182, (S)-7-(1-cyanopiperidin-4-yl)-2-(4-phenoxyphenyl)-4,5,6,7-tetrahydropyrazolo[1,5-a]pyrimidine-3-carboxamide], 124 nM.
Then `CC#CC(=O)N1CC(C2CCNc3c(C(N)=O)c(-c4ccc(Oc5ccccc5)cc4)nn32)C1` (stereo not shown) [Compound 184, 7-(1-(But-2-ynoyl)azetidin-3-yl)-2-(4-phenoxyphenyl)-4,5,6,7-tetrahydropyrazolo[1,5-a]pyrimidine-3-carboxamide], with 4.7 nM; and `CC#CC(=O)NCC1CCNc2c(C(N)=O)c(-c3ccc(Oc4ccccc4)cc3)nn21` (stereo not shown) [Compound 185, 7-(But-2-ynamidomethyl)-2-(4-phenoxyphenyl)-4,5,6,7-tetrahydropyrazolo[1,5-a]pyrimidine-3-carboxamide], with 4.3 nM; and `CCC#CC(=O)N1CCC([C@@H]2CCNc3c(C(N)=O)c(-c4ccc(Oc5ccccc5)cc4)nn32)CC1` [Compound 186, (S)-7-(1-(Pent-2-ynoyl)piperidin-4-yl)-2-(4-phenoxyphenyl)-4,5,6,7-tetrahydropyrazolo[1,5-a]pyrimidine-3-carboxamide], with 1.1 nM.
In the case of `NC(=O)c1c(-c2ccc(Oc3ccccc3)cc2)nn2c1NCC[C@H]2C1CCN(C(=O)C#CCN2CCCC2)CC1` [Compound 187, (S)-2-(4-Phenoxyphenyl)-7-(1-(4-(pyrrolidin-1-yl)but-2-ynoyl)piperidin-4-yl)-4,5,6,7-tetrahydropyrazolo[1,5-a]pyrimidine-3-carboxamide] it was 2.1 nM; in that of `CN(C)CC#CC(=O)N1CCC([C@@H]2CCNc3c(C(N)=O)c(-c4ccc(Oc5ccccc5)cc4)nn32)CC1` [Compound 188, (S)-7-(1-(4-(Dimethylamino)but-2-ynoyl)piperidin-4-yl)-2-(4-phenoxyphenyl)-4,5,6,7-tetrahydropyrazolo[1,5-a]pyrimidine-3-carboxamide], 1.1 nM.
`CC#CC(=O)N1CC(C2CCNc3c(C(N)=O)c(-c4ccc(Oc5ccc(F)cc5F)cc4)nn32)C1` (stereo not shown) [Compound 189, 7-(1-(But-2-ynoyl)azetidin-3-yl)-2-(4-(2,4-difluorophenoxy)phenyl)-4,5,6,7-tetrahydropyrazolo[1,5-a]pyrimidine-3-carboxamide]: the IC50 was 42 nM.
On to `CC#CC(=O)NCC1CCNc2c(C(N)=O)c(-c3ccc(Oc4ccc(F)cc4F)cc3)nn21` (stereo not shown) [Compound 190, 7-(But-2-ynamidomethyl)-2-(4-(2,4-difluorophenoxy)phenyl)-4,5,6,7-tetrahydropyrazolo[1,5-a]pyrimidine-3-carboxamide], for which the IC50 was found to be 38 nM.
